{"source": "patent US8163795B2", "about": "“Chroman derivatives, medicaments and use in therapy” (Marshall Edwards, Inc., priority 2004, dated 2012)", "key": {"[1]": {"tested_on": "A2780 (Ovarian)", "assay": "Proliferation assay (MTT)", "assay_type": "cell-based", "details": "Homo sapiens, Table 2.1", "method_in_brief": "(§1)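 Cells were seeded at densities set by growth kinetics and cultured 5 days with or without test compound in medium with 10% FCS at 37° C, 5% CO2. MTT was added for 3-4 hrs at 37° C; IC50 was taken from semi-log plots of % control proliferation versus log dose.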"}, "[2]": {"tested_on": "MM96L melanoma cell line", "assay": "Proliferation assay (MTT)", "assay_type": "cell-based", "details": "Homo sapiens, Table 15", "method_in_brief": "as §1"}, "[3]": {"tested_on": "MCF-7 breast cancer cell line", "assay": "Proliferation assay (MTT)", "assay_type": "cell-based", "details": "Homo sapiens, MCF7; Table 2.1; Breast MCF-7", "method_in_brief": "as §1"}, "[4]": {"tested_on": "DU145 (Prostate)", "assay": "Proliferation assay (MTT)", "assay_type": "cell-based", "details": "Homo sapiens, DU-145, Table 2.1", "method_in_brief": "as §1"}, "[5]": {"tested_on": "HCT-15 (Colorectal)", "assay": "Proliferation assay (MTT)", "assay_type": "cell-based", "details": "Homo sapiens; Table 2.1; Colorectal HCT-15", "method_in_brief": "as §1"}, "[6]": {"tested_on": "SKMe128 melanoma cell line", "assay": "Proliferation assay (MTT)", "assay_type": "cell-based", "details": "Table 15", "method_in_brief": "as §1"}, "[7]": {"tested_on": "HT-29 (Colorectal)", "assay": "Proliferation assay (MTT)", "assay_type": "cell-based", "details": "Homo sapiens, Colorectal HT-29", "method_in_brief": "as §1"}, "[8]": {"tested_on": "CCRF-CEM (Leukemic)", "assay": "Proliferation assay (MTT)", "assay_type": "cell-based", "details": "Homo sapiens, CCRF-CEM", "method_in_brief": "as §1"}, "[9]": {"tested_on": "NCI-H23 (Lung)", "assay": "Proliferation assay (MTT)", "assay_type": "cell-based", "details": "Homo sapiens, Table 2.1", "method_in_brief": "as §1"}, "[10]": {"tested_on": "NCI-H460 (Lung)", "assay": "Proliferation assay (MTT)", "assay_type": "cell-based", "details": "Homo sapiens", "method_in_brief": "as §1"}, "[11]": {"tested_on": "HTB-138 (Glioma)", "assay": "Proliferation assay (MTT)", "assay_type": "cell-based", "details": "Table 2.1; Glioma HTB-138", "method_in_brief": "as §1"}, "[12]": {"tested_on": "IGR-3 (Melanoma)", "assay": "Proliferation assay (MTT)", "assay_type": "cell-based", "method_in_brief": "as §1"}, "[13]": {"tested_on": "LNCaP (Prostate)", "assay": "Proliferation assay (MTT)", "assay_type": "cell-based", "details": "Homo sapiens, Table 2.1", "method_in_brief": "as §1"}, "[14]": {"tested_on": "PC3 prostate cancer cell line", "assay": "Proliferation assay (MTT)", "assay_type": "cell-based", "method_in_brief": "as §1"}, "[15]": {"tested_on": "4405 melanoma cell line", "assay": "Proliferation assay (MTT)", "assay_type": "cell-based", "details": "Table 15; melanoma 4405", "method_in_brief": "as §1"}, "[16]": {"tested_on": "RM melanoma cell line", "assay": "Proliferation assay (MTT)", "assay_type": "cell-based", "details": "Table 15", "method_in_brief": "as §1"}, "[17]": {"assay": "HMC and HHC pharmacokinetics, oral, human patients", "assay_type": "in vivo", "details": "plasma", "method": "Human patients were orally dosed with 200 mg of either HMC or HHC. For each challenged patient, blood was taken over a 6 hour period and the results averaged to characterise the plasma pharmacokinetics."}, "[18]": {"tested_on": "4405 melanoma cell line", "assay": "HMC combination with paclitaxel (synergy)", "assay_type": "cell-based", "details": "for IC50: Table 10, single agent", "method": "(§2) IC50 values were determined for each cell line. Cells were seeded in 96-well plates at an appropriate cell density as determined from growth kinetics analysis and cultured for 5 days in the absence and presence of the test compounds. Cell proliferation was assessed after the addition of 20 μl of 3-4,5 dimethylthiazol-2,5-diphenyl tetrazolium bromide (MTT, 2.5 mg/ml in PBS, Sigma) for 3-4 hrs at 37° C. according to manufacturer's instructions. IC50 values were calculated from semi-log plots of % of control proliferation on the y-axis against log dose on the x-axis.\n(§3) 3-D model analysis of the cytotoxic interaction between drug A and drug B enables the representation of predicted inhibitory effect of two drugs in combination in 3 dimensions to reveal actual regions of synergy or antagonism. The 3D synergy plots are based on a theory of “Theretical Additivity” (TA) as outlined by Kanzawa et al (Int. J. Cancer 71, 311-319 (1997)). Theoretical Additivity was calculated from the cytotoxicities of drug A and drug B as monotherapies using the following formula which assumes the drugs are mutually exclusive inhibitors: […]\n(§4) The TA is calculated for each combination of drug concentrations and subtracted from the observed experimental effect for each combination to give a measurement of synergisitic action.\nHMC synergy with paclitaxel was assessed either in combination over 5 days exposure or in sequence (HMC→paclitaxel) against the 4405 melanoma cell line. It was difficult to assess for synergisitic toxicity using a change in IC50 as a measure of synergy due to HMC toxicity as monotherapy (Table 10). […] Evidence of synergy using the HMC-paclitaxel combination was further assessed using the HMC→paclitaxel sequence (24 hr exposure to each compound in sequence) against the melanoma cell line 4405. Using change in IC50 to assess for synergy it was noted that HMC at concentrations of 2 μM markedly chemosensitised the 4405 cells to paclitaxel by >1000 fold (Table 10). HMC-induced chemosensitisation of […] cells to paclitaxel was confirmed using 3D analysis of the data."}, "[19]": {"tested_on": "Mel-RM melanoma cell line", "assay": "HMC combination with gemcitabine (synergy)", "assay_type": "cell-based", "details": "for IC50: Table 9, single agent", "method": "as §2, §3, §4\nHMC synergy with gemcitabine was assessed either in combination over 5 days exposure or in sequence (HMC→gemcitabine) against the Mel-RM melanoma cell line. It was difficult to assess for synergisitic toxicity using a change in IC50 as a measure of synergy due to HMC toxicity as monotherapy (Table 9). […] Evidence of synergy using the HMC-gemcitabine combination was further assessed using the HMC→gemcitabine sequence (24 hr exposure to each compound in sequence) against the melanoma cell line Mel-RM. Using change in IC50 to assess for synergy it was noted that HMC at concentrations of 2 and 1 μM markedly chemosensitised the Mel-RM cells to gemcitabine by >1000 fold. HMC-induced chemosensitisation of Mel-RM cells to gemcitabine was confirmed using 3D analysis of the data."}, "[20]": {"details": "human, po, humans dosed orally with 200 mg"}, "[21]": {"details": "120 h, 5 days exposure, read-out: IC50, Combined (monotherapy)"}, "[22]": {"details": "24 hr exposure, read-out: IC50, 24 hr (monotherapy)"}}, "note": "Where two headings read alike, the source gives them in different places."}
{"smiles": "COc1ccc(C2c3ccc(O)cc3OCC2c2ccc(O)cc2)cc1", "note": "(stereo not drawn) [Compound 1, 3-(4-hydroxyphenyl)-4-(4-methoxyphenyl)chroman-7-ol]", "values": [{"measurement": "IC50", "setting": "[1]", "result": "1580 ± 590", "unit": "nM"}, {"measurement": "IC50", "setting": "[2]", "result": "1310 ± 380", "unit": "nM"}, {"measurement": "IC50", "setting": "[3]", "result": "7150 ± 7000", "unit": "nM"}, {"measurement": "IC50", "setting": "[4]", "result": 3780, "unit": "nM"}, {"measurement": "IC50", "setting": "[5]", "result": "37800 ± 33000", "unit": "nM"}, {"measurement": "IC50", "setting": "[6]", "result": "680 ± 160", "unit": "nM"}, {"measurement": "IC50", "setting": "[7]; HT-29, Table 2.1", "result": "3700 ± 1400", "unit": "nM"}, {"measurement": "IC50", "setting": "[7]; HT-29, Table 2.2", "result": "5400 ± 1800", "unit": "nM"}, {"measurement": "IC50", "setting": "[8]; Table 2.1, Leukemic CCRF-CEM", "result": 1900, "unit": "nM"}, {"measurement": "IC50", "setting": "[8]; Table 2.2, Leukaemia CCRF-CEM", "result": "2000 ± 970", "unit": "nM"}, {"measurement": "IC50", "setting": "[9]", "result": "3750 ± 2500", "unit": "nM"}, {"measurement": "IC50", "setting": "[10]; NCI-H460, Table 2.1, Lung NCI-H460", "result": "2230 ± 150", "unit": "nM"}, {"measurement": "IC50", "setting": "[10]; NCI-H460, Table 2.2, NSC Lung NCI-H460", "result": "2800 ± 2000", "unit": "nM"}, {"measurement": "IC50", "setting": "[11]", "result": "1900 ± 270", "unit": "nM"}, {"measurement": "IC50", "setting": "[12]; Table 2.1, Melanoma IGR-3", "result": "530 ± 20", "unit": "nM"}, {"measurement": "IC50", "setting": "[12]; Table 15, melanoma IgR3", "result": "510 ± 80", "unit": "nM"}, {"measurement": "IC50", "setting": "[13]", "result": 4520, "unit": "nM"}, {"measurement": "IC50", "setting": "[14]; Table 2.1", "result": "2900 ± 920", "unit": "nM"}, {"measurement": "IC50", "setting": "[14]; Table 2.2", "result": "2500 ± 1000", "unit": "nM"}, {"measurement": "IC50", "setting": "[15]", "result": "1460 ± 180", "unit": "nM"}, {"measurement": "IC50", "setting": "[16]", "result": "1400 ± 1600", "unit": "nM"}, {"measurement": "Cmax", "setting": "[17]; [20]", "result": 513, "unit": "ng/mL"}, {"measurement": "Tmax", "setting": "[17]; [20]", "result": 2.17, "unit": "h"}, {"measurement": "t1/2", "setting": "[17]; humans dosed orally with 200 mg", "result": 3.99, "unit": "h"}, {"measurement": "half-life", "setting": "[17]; human patients, 200 mg oral, initial results", "result": 3.99, "unit": "h"}, {"measurement": "reduction in IC50 in the combination experiment vs paclitaxel monotherapy", "setting": "[18]; 5-day combination", "result": 30, "unit": "fold"}, {"measurement": "IC50", "setting": "[18]; [21]", "result": 1260, "unit": "nM"}, {"measurement": "chemosensitisation of 4405 cells to paclitaxel (change in IC50)", "setting": "[18]; HMC 2 μM, HMC→paclitaxel sequence", "result": "> 1000", "unit": "fold"}, {"measurement": "Change Factor (HMC first)", "setting": "[18]; Paclitaxel block, HMC 1 uM 24 hr then paclitaxel 24 hr", "result": 11.00}, {"measurement": "Change Factor (HMC first)", "setting": "[18]; Paclitaxel block, HMC 2 uM 24 hr then paclitaxel 24 hr", "result": 106633.75}, {"measurement": "Change Factor (Combined)", "setting": "[18]; Paclitaxel block, with HMC 1 uM, 5-day combination", "result": 30.36}, {"measurement": "Change Factor (Combined)", "setting": "[18]; Paclitaxel block, with HMC 2 uM, 5-day combination", "result": "?HMC effect"}, {"measurement": "IC50", "setting": "[18]; [22]", "result": 55500, "unit": "nM"}, {"measurement": "Change Factor (HMC first)", "setting": "[18]; upper block of Table 10, HMC 2 uM first, sequence", "result": "−1.035"}, {"measurement": "Change Factor (Combined)", "setting": "[18]; upper block of Table 10, HMC 2 uM, 5-day combination", "result": 5964.400}, {"measurement": "IC50", "setting": "[19]; [21]", "result": 510, "unit": "nM"}, {"measurement": "Change Factor (HMC first)", "setting": "[19]; Gemcitabine block, HMC 1 uM 24 hr then gemcitabine 24 hr", "result": ">1000"}, {"measurement": "Change Factor (HMC first)", "setting": "[19]; Gemcitabine block, HMC 2 uM 24 hr then gemcitabine 24 hr", "result": ">100"}, {"measurement": "chemosensitisation of Mel-RM cells to gemcitabine (change in IC50)", "setting": "[19]; HMC 2 and 1 μM, HMC→gemcitabine sequence", "result": "> 1000", "unit": "fold"}, {"measurement": "IC50", "setting": "[19]; [22]", "result": 27800, "unit": "nM"}, {"measurement": "Change Factor (HMC first)", "setting": "[19]; upper block of Table 9, HMC 1 uM first, sequence", "result": ">1000"}, {"measurement": "Change Factor (HMC first)", "setting": "[19]; upper block of Table 9, HMC 2 uM first, sequence", "result": ">1000"}]}
